# According to patent US7056339B2, “Drug delivery platform” (The Board of Trustees of the Leland Stanford Junior …, priority 2001, dated 2006):
# B1: Fas ligand: pro-apoptotic factor Fas ligand (Oncogene Research) (protein, UniProt P48023 130-281, looked up)
# Tumor necrosis factor ligand …: QIGHPSPPPEKKELRKVAHLTGKSNSRSMPLEWEDTYGIVLLSGVKYKKGGLVINETGLYFVYSKVYFRGQSCNNLPLSHKVYMRNSKYPQDLVMMEGKMMSYCTTGQMWARSSYLGAVFNLTSADHLYVNVSELSLVNFEESQTFFGLYKL
# Tests used:
# [1] = system: rabbit infra-renal abdominal aorta, in-stent plaque; test: Morphological analysis of intima/media ratios 28 days after in vivo stent implantation; design: species or system New Zealand White rabbits; details: 28 days after stent implantation, mean ± SE
# Method: Age-matched adult male New Zealand White rabbits weighing 3.8–4.2 kg were used in accordance to NIH and institutional guidelines (n=6 animals per group). Under general anesthesia, an arteriotomy at the femoral artery was performed and a 5 Fr introducing sheath was placed. Under fluoroscopic guidance, aseptically prepared channeled stents filled with blank or angiostatin microspheres were deployed in the infra-renal abdominal aorta. Stents were post-dilated at 8 atm with a 5 mm angioplasty balloon (Jupiter, Cordis, Miami, Fla.) to a final lumen size of 125% above the baseline with care taken to ensure that […] were present within the stent segment. Pre- and post-deployment digital subtraction angiograms were recorded for the blank procedural control and angiostatin treatment groups. The rabbits were fed a 0.25% cholesterol diet after the intervention. Early 7 day follow up (n=3 per group) or late 28 day follow-up (n=3 per group) animals underwent total-body perfusion-fixation as previously described with immediate excision of the aortic segment containing stent. The 7 day aortic specimens were excised longitudinally and stents were removed. The resulting aortic segments were divided into two equal subsegments. One subsegment of each underwent fixation in 10% neutral buffered formalin and embedded in paraffin for light microscopic and morphologic analysis. The remaining subsegment of each specimen was snap frozen for molecular assay. The 28 days aortic specimens were fixed in 10% neutral buffered formalin and were embedded in PolyBed (Polysciences, Warrington, Pa.) for light microscopic and morphologic analysis.
# The seven day analysis consisted of thick (5 μm) cross sections of the aortic wall were obtained from the paraffin-embedded specimens (n=9 sections per group). An elastic von Gieson-Masson trichrome or Elastica van Gieson-Hematoxylin double stain was performed for light microscopic analysis. For the 28 day specimen analysis (n=3 animals per group), each plastic-embedded aorta with stents was cut into five pieces longitudinally equal lengths. These pieces were stained by modified Verhoff elastic staining. Five cross sectional images of the stained aorta were obtained (n=15 sections per group) from one side of plastic pieces. […] Using Image Pro Plus software (Media Cybernetics, Silver Spring, Md.), the cross-sectional area of the intima and the media were determined by blinded observers. The ratio of intima area to media area subsequently tabulated for each, with the results presented as Table 2. Mean, standard error, and significance were determined.
# [2] = system: rabbit infra-renal abdominal aorta, in-stent plaque; test: Local plaque stability parameters: macrophage infiltrate and endothelial density (CD31), 7 days; assay type: in vivo, New Zealand White rabbits; details: 7 days after stent implantation, stents releasing angiostatin, mean ± SE
# Method: Age-matched adult male New Zealand White rabbits weighing 3.8–4.2 kg were used in accordance to NIH and institutional guidelines (n=6 animals per group). Under general anesthesia, an arteriotomy at the femoral artery was performed and a 5 Fr introducing sheath was placed. Under fluoroscopic guidance, aseptically prepared channeled stents filled with blank or angiostatin microspheres were deployed in the infra-renal abdominal aorta. Stents were post-dilated at 8 atm with a 5 mm angioplasty balloon (Jupiter, Cordis, Miami, Fla.) to a final lumen size of 125% above the baseline with care taken to ensure that […] were present within the stent segment. Pre- and post-deployment digital subtraction angiograms were recorded for the blank procedural control and angiostatin treatment groups. The rabbits were fed a 0.25% cholesterol diet after the intervention. […]
# Cross sections at the 7 day time point evaluated above were obtained (two per segment) from each vessel and incubated with a primary monoclonal antibody to rabbit macrophage (clone RAM-11, 1/800 dilution, DAKO, Carpinteria, Calif.). The number of positive cells per cross section was counted by a blinded observer. […] Mean and standard error were tabulated for each group with significance determined as before and p values as reported.
molecule,measurement,setting,value
FGF: acidic FGF (Calbiochem) with endotoxin-free heparin as a stabilizer,Intima to media ratio,"[1]; stents releasing acidic FGF (200 ng with 1280 units heparin as stabilizer), P = 0.004 vs. controls",1.634 ± 0.051
TGFβ1: transforming growth factor β1 (Oncogene Research),Intima to media ratio,"[1]; stents releasing TGFβ1 (2.0 μg loaded), P = 0.004 vs. controls",1.803 ± 0.053
alpha-1-antitrypsin [AAT],Intima to media ratio,"[1]; stents releasing an elastase inhibitor (40 mg alpha-1-antitrypsin loaded), P = 0.0001 vs. controls",1.322 ± 0.060
angiostatin,Macrophages (number of cross-sectional macrophages),[2],34.889 ± 3.948 P = 0.0011 cells per cross section
same,CD31 (number of plaque microvessels),[2]; P < 0.05 vs. controls,0.111 ± 0.111
same,Intima to media ratio,"[1]; stents releasing angiostatin (2.0 mg loaded in microspheres), P = 0.003 vs. controls",1.610 ± 0.050
B1,Intima to media ratio,"[1]; stents releasing Fas Ligand (10 μg loaded), P < 0.05 vs. controls",1.356 ± 0.053
